Test results from article PMC6271425, “Synthesis and Sar Study of Diarylpentanoid Analogues as New Anti-Inflammatory Agents” (Molecules, 2014).
Where two headings read alike, the source gives them in different places.

Key:
[1] = tested on: NO production in IFN-γ/LPS-stimulated RAW 264.7 macrophages; experiment: NO suppression (Griess nitrite determination) in IFN-γ/LPS-stimulated RAW 264.7 macrophages; format: cell-based, murine; details: for inhibition at 50 µM: RAW264.7, 50 µM test concentration, read-out: NO Inhibition at 50 µM (%) ± S.E.M; for NO Inhibition at 50 µM (%) ± S.E.M: 50 µM test concentration
Procedure: The synthesized compounds were screened for NO suppression activity in IFN-γ/LPS-stimulated RAW 264.7 macrophages at a 50 µM test concentration. […] The IC50 values of the fifty-seven bioactive compounds were determined and compared to that of the positive control, curcumin. An MTT assay was also carried out to confirm that NO inhibition was not due to cytotoxicity. […] The complete bioassay results of all the compounds are provided as Table S2 in Supplementary Data. RAW 264.7 murine macrophages cells obtained from American Type Culture Collection (ATCC, Rockville, MD, USA) were grown in Dulbecco’s Modified Eagle’s Medium (DMEM) containing 10% fetal bovine serum (FBS) and 1% penicillin/streptomycin in a 95% air and 5% CO2 atmosphere at 37 °C. RAW 264.7 cells at 90%–95% confluency were detached and seeded (50,000 cells/well) into a 96-well culture plate with 50 μL of DMEM and incubated for 24 h. The cells were then stimulated in […] of LPS (Escherichia coli, serotype 0111:B4) and 1 ng/ml of interferon-gamma (IFN-γ) in the presence or absence of test compounds for 17 h. Nitrite concentration was then determined by Griess assay by reacting 50 μL of cell culture supernatant with 50 μL of Griess reagent (1% sulfanilamide and 0.1% N-(1-naphthyl)ethylenediamine dihydrochloride in 2.5% phosphoric acid) at room temperature. The optical density was measured at 550 nm after 5 min of incubation at room temperature with a microplate reader.

[2] = Cell cytotoxicity determination (MTT assay); format: cell-based, murine; details: mouse, RAW 264.7 macrophage cells, RAW 264.7 cells, read-out: Cytotoxicity IC50 (µM) ± S.E.M
Procedure: The synthesized compounds were screened for NO suppression activity in IFN-γ/LPS-stimulated RAW 264.7 macrophages at a 50 µM test concentration. […] The IC50 values of the fifty-seven bioactive compounds were determined and compared to that of the positive control, curcumin. An MTT assay was also carried out to confirm that NO inhibition was not due to cytotoxicity. […] The complete bioassay results of all the compounds are provided as Table S2 in Supplementary Data.
RAW 264.7 murine macrophages cells obtained from American Type Culture Collection (ATCC, Rockville, MD, USA) were grown in Dulbecco’s Modified Eagle’s Medium (DMEM) containing 10% fetal bovine serum (FBS) and 1% penicillin/streptomycin in a 95% air and 5% CO2 atmosphere at 37 °C.
Supernatant in each well was removed followed by addition of 100 µL DMEM. Subsequently, 20 µL of 3-(4,5-dimethylthiazol-2-yl)-2,5-diphenyltetrazolium bromide (MTT, 5 mg/mL) was then added and the plate was incubated in a 95% air and 5% CO2 atmosphere at 37 °C for 4 h. The mixture of culture media and MTT in all wells were removed and the purplish formazan crystals formed were dissolved in dimethyl sulfoxide (DMSO) and further incubated for 15 min at room temperature. The color intensity was then measured at 570 nm at room temperature.

[3] = Mus musculus, IFN-γ/LPS-stimulated RAW 264.7 cells
[4] = Mus musculus, RAW264.7, IFN-γ/LPS-stimulated RAW 264.7 cells, read-out: NO Inhibition IC50 (µM) ± S.E.M
[5] = Mus musculus, RAW264.7, Table 6, NO suppression IC50 used for QSAR, unit inferred, read-out: IC50
[6] = Mus musculus, RAW264.7, −log IC50 of NO suppression, read-out: pIC50 (converted)
[7] = IFN-γ/LPS-stimulated RAW 264.7 cells
[8] = IFN-γ/LPS-stimulated RAW 264.7 cells, read-out: NO Inhibition IC50 (µM) ± S.E.M

| Compound | inhibition at 50 µM [1, 3] | IC50 [1, 4] | IC50 [1, 5] | IC50 [1, 6] | IC50 [2] | NO Inhibition at 50 µM (%) ± S.E.M [1, 7] | IC50 [1, 8] |
| --- | --- | --- | --- | --- | --- | --- | --- |
| COc1ccc(OC)c(/C=C/C(O)=C/C(=O)c2ccccc2O)c1 [Compound 14] | 92.9 ± 0.2% | 28.4 ± 0.435 µM | 28.4 ± 0.4 µM | 28.2 µM | > 100 µM | – | – |
| COc1cccc(/C=C/C(O)=C/C(=O)c2cc(Cl)ccc2O)c1 [Compound 25] | 76.3 ± 6.48% | 17.4 ± 0.372 µM | 17.4 ± 0.4 µM | 17.4 µM | > 100 µM | 76.3 ± 6.5% | < 20 µM |
| O=C(/C=C(O)/C=C/c1ccccc1Cl)c1cc(Cl)ccc1O [Compound 22] | 82.5 ± 4.32% | 30 ± 2.1 µM | 30 ± 2.1 µM | 30.2 µM | > 100 µM | 82.5 ± 4.3% | – |
| COc1ccc(O)c(C(=O)/C=C(O)/C=C/c2ccc(OC)c(OC)c2)c1 [Compound 63] | 92.19 ± 0.77% | 19.8 ± 0.365 µM | 19.8 ± 0.4 µM | 20 µM | > 100 µM | 92.2 ± 0.8% | < 20 µM |
| O=C(/C=C(O)/C=C/c1ccccc1Cl)c1ccccc1O [Compound 2] | 91 ± 2.9% | 27.32 ± 0.234 µM | 27.3 ± 0.2 µM | 27.5 µM | > 100 µM | – | – |
| O=C(/C=C(O)/C=C/c1cccs1)c1ccccc1O [Compound 16] | 79.1 ± 4.58% | 42.64 ± 0.128 µM | 42.6 ± 0.1 µM | 42.7 µM | > 100 µM | 79.1 ± 4.6% | – |
| Cc1ccc(/C=C/C(O)=C/C(=O)c2ccccc2O)s1 [Compound 18] | 58.9 ± 5.76% | 39.6 ± 4.13 µM | 39.6 ± 4.1 µM | 39.8 µM | > 100 µM | 58.9 ± 5.8% | – |
| O=C(/C=C(O)/C=C/c1cccc2ccccc12)c1ccccc1O [Compound 19] | 85.8 ± 3.93% | 23 ± 1.7 µM | 23 ± 1.7 µM | 22.9 µM | > 100 µM | 85.8 ± 3.9% | – |
| O=C(/C=C(O)/C=C/c1ccccc1)c1ccccc1O [Compound 1] | 94.7 ± 1.2% | 22.6 ± 0.515 µM | 22.6 ± 0.5 µM | 22.4 µM | 56.2 ± 1.1 µM | 94.7 ± 1.2% | – |
| COc1ccc(O)c(C(=O)/C=C(O)/C=C/c2ccccc2OC)c1 [Compound 61] | 65.8 ± 2.37% | 27.41 ± 0.207 µM | 27.4 ± 0.2 µM | 27.5 µM | > 100 µM | 65.8 ± 2.4% | – |
| O=C(/C=C(O)/C=C/c1cccs1)c1cc(Cl)ccc1O [Compound 35] | 68.8 ± 4.21% | 32.17 ± 0.176 µM | 32.2 ± 0.2 µM | 32.4 µM | > 100 µM | 68.8 ± 4.2% | – |
| COc1ccccc1/C=C/C(O)=C/C(=O)c1ccccc1O [Compound 5] | 91.8 ± 1.49% | 25.7 ± 0.621 µM | 25.7 ± 0.6 µM | 25.7 µM | > 100 µM | 91.8 ± 1.5% | – |
| COc1ccc(/C=C/C(O)=C/C(=O)c2ccccc2O)cc1OC [Compound 8] | 94.7 ± 1.7% | 24.6 ± 0.73 µM | 24.6 ± 0.7 µM | 24.5 µM | > 100 µM | 94.7 ± 1.7% | – |
| COc1cccc(/C=C/C(O)=C/C(=O)c2cc(OC)ccc2O)c1 [Compound 62] | 92.6 ± 1.18% | 35.06 ± 0.165 µM | 35.1 ± 0.2 µM | 34.7 µM | > 100 µM | 92.6 ± 1.2% | – |
| COc1ccccc1/C=C/C(O)=C/C(=O)c1cc(Cl)ccc1O [Compound 24] | 70.4 ± 1.32% | 36 ± 0.515 µM | 36 ± 0.5 µM | 36.3 µM | > 100 µM | 70.4 ± 1.3% | – |
| O=C(/C=C(O)/C=C/c1cccc(Cl)c1)c1ccccc1O [Compound 3] | 93 ± 3.43% | 26.7 ± 0.732 µM | 26.7 ± 0.7 µM | 26.9 µM | > 100 µM | 93.0 ± 3.4% | – |
| COc1ccc(C(=O)/C=C(O)/C=C/c2ccc(OC)c(OC)c2)c(O)c1 [Compound 51] | 58.9 ± 2.76% | 21.7 ± 0.5 µM | 21.7 ± 0.5 µM | 21.9 µM | > 100 µM | 58.9 ± 2.8% | – |
| Cc1ccc(/C=C/C(O)=C/C(=O)c2cc(Cl)ccc2O)s1 [Compound 37] | 56 ± 2.62% | 62.4 ± 2.29 µM | 62.4 ± 2.3 µM | 63.1 µM | > 100 µM | 56.0 ± 2.6% | – |
| COc1cccc(/C=C/C(O)=C/C(=O)c2ccc(OC)cc2O)c1 [Compound 49] | 57.5 ± 6.45% | 45.8 ± 0.804 µM | 45.8 ± 0.8 µM | 45.7 µM | > 100 µM | 57.5 ± 6.5% | – |
| COc1ccc(C(=O)/C=C(O)/C=C/c2ccccc2Cl)c(O)c1 [Compound 46] | 76.2 ± 4.57% | 58.5 ± 2.45 µM | 58.5 ± 2.4 µM | 58.9 µM | > 100 µM | 76.2 ± 4.6% | – |
| COc1ccc(O)c(C(=O)/C=C(O)/C=C/c2cccs2)c1 [Compound 71] | 85 ± 2.66% | 35.6 ± 0.621 µM | 35.6 ± 0.6 µM | 35.5 µM | > 100 µM | 85.0 ± 2.7% | – |
| O=C(/C=C(O)/C=C/c1cccc(Br)c1)c1ccccc1O [Compound 4] | 88.4 ± 3.21% | 29.4 ± 0.7 µM | 29.4 ± 0.7 µM | 29.5 µM | > 100 µM | 88.4 ± 3.2% | – |
| O=C(/C=C(O)/C=C/c1cc(O)ccc1O)c1ccccc1O [Compound 83] | 94.3 ± 1.83% | 16.7 ± 0.557 µM | 16.7 ± 0.6 µM | 16.6 µM | – | 94.3 ± 1.8% | < 20 µM |
